Experimental findings from paper PMC9144829, “Histone Deacetylase Inhibitory Activity and Antiproliferative Potential of New [6]-Shogaol Derivatives” (Molecules, 2022) are described below.

Assay [1] relates to cholangiocarcinoma KKU-100 cells. The assay can be described thus: MTT assay, KKU-100 cells. It is filed as cell-based, human. The method, then: (§1) The MTT reduction assay was performed with non-cancer (Vero), human cervical cancer (HeLa), human colon cancer (HCT116), human breast adenocarcinoma cancer (MCF-7), and cholangiocarcinoma (H-69 […], KKU-100 and KKU-M213B) cell lines according to the previously described method. Briefly, cells were seeded in 96-well plates. The next day, cells were exposed to the selected compounds at various concentrations and incubated for 24, 48 and 72 h. After incubation, the culture medium was exchanged with 110 µL of MTT (0.5 mg/mL in PBS medium) and further incubated for 2 h. The amount of MTT formazan product was determined after dissolving in DMSO by measuring its absorbance with a microplate reader (Bio-Rad Laboratories, Hercules, CA, USA) at a test wavelength of 550 nm and a reference wavelength of 655 nm. The cell viability was expressed as a percentage of the viable cells of control culture conditions, and the IC50 values of each group were calculated.

The subject of assay [2] is cholangiocarcinoma KKU-M213B cells. The assay can be described thus: MTT assay, KKU-M213B cells. It is filed as cell-based, human. The following applies: read-out: IC50 Values (Mean ± SD; n = 3). As for the experimental part:
as §1
Background: Tetrazolium dyes change colour on reduction, which living cells bring about.

The subject of a further assay is Vero cells. As to the kind of experiment: MTT assay, non-cancer Vero cells. It is filed as cell-based. The settings on record: Chlorocebus sabaeus, read-out: IC50 Values (Mean ± SD; n = 3). As for the experimental part:
as §1

The test system of assay [3] is human colon cancer (HCT116) cells. The assay can be described thus: MTT assay, HCT116 cells. It is filed as cell-based. As for the experimental part:
as §1

The test system of assay [4] is human cervical cancer (HeLa) cells. The assay can be described thus: MTT assay, HeLa cells. It is filed as cell-based. The following applies: read-out: IC50 Values (Mean ± SD; n = 3), HeLa cells. As for the experimental part:
as §1

Assay [5] deals with human breast adenocarcinoma cancer (MCF-7) cells. The assay can be described thus: MTT assay, MCF-7 cells. Type of assay: cell-based. The method, then:
as §1

In assay [6] the test system is HDAC enzymes (HeLa nuclear extract, mixed-HDAC isoforms). As to the kind of experiment: Fluor-de-Lys HDAC activity assay kit, HeLa nuclear extract as source of HDAC enzymes. It is filed as biochemical, human. The settings on record: compounds at 100 µM. The method, then:
The in vitro HDAC inhibitions of the obtained compounds were carried out with the assay kit containing mixed-HDAC isoforms. […] Therefore, the results were not fully related. However, compounds with good binding affinities should have the potential to be specific HDAC inhibitors for each isoform.
The semi-synthetic derivatives were evaluated for their ability to inhibit HDAC enzymes. Inhibition of HDAC activity in vitro was assessed using the Fluor-de-Lys HDAC activity assay kit (Biomol, Enzo Life Sciences International, Inc., Farmingdale, NY, USA). The HeLa nuclear extract provided with the kit was used as a source of HDAC enzymes for the in vitro study. TSA was used as the positive control. The HeLa nuclear extract, substrate, buffer and inhibitors were incubated. Deacetylation of the substrate was performed next by adding a developer to generate a fluorophore. The spectra Max Gemini XPS microplate spectrofluorometer (Molecular Devices, San Jose, CA, USA) was used to measure fluorescence signal with excitation at 360 nm and emission at 460 nm. A decrease in fluorescence signal indicated an inhibition of HDAC activity. Trichostatin A (TSA) was used as a positive control. All experiments were carried out in triplicate.

For a further assay, the system named is H-69 cells. As to the kind of experiment: MTT assay, H-69 cells. Type of assay: cell-based. As for the experimental part: as §1
Setting [7] is: read-out: IC50 Values (Mean ± SD; n = 3), 24 h.
Where [8] appears, read: read-out: IC50 Values (Mean ± SD; n = 3), 48 h.
The mark [9] stands for this setting: read-out: IC50 Values (Mean ± SD; n = 3), 72 h.

Read-outs that look alike come from different tables or passages of the source. Where only a bound is given, the exact number is not on record here.

As a reminder, the IC50 is the concentration at which inhibition is half-maximal. Regarding `CCCCC/C=C/C(CCc1ccc(O)c(OC)c1)=N\Nc1nc2ccccc2s1` [Compound 4d, 4-((3Z,4E)-3-(2-(Benzo[d]thiazol-2-yl)hydrazono)dec-4-en-1-yl)-2-methoxyphenol], the IC50 turned out to be 41.6 ± 1.24 µM in assay [1] (Homo sapiens, KKU100, read-out: IC50 Values (Mean ± SD; n = 3), 24 h); 31.5 ± 0.8 µM in assay [1] (Homo sapiens, KKU100, read-out: IC50 Values (Mean ± SD; n = 3), 48 h); 25.75 ± 0.2 µM in assay [1] (Homo sapiens, KKU100, read-out: IC50 Values (Mean ± SD; n = 3), 72 h); 39.84 ± 0.29 µM in assay [2] (Homo sapiens, 24 h); 20.6 ± 0.18 µM in assay [2] (Homo sapiens, 48 h); 18.2 ± 0.75 µM in assay [2] (Homo sapiens, 72 h). The half-inhibitory concentration (IC50) in the assay with Vero cells (24 h) stood at 170 ± 6.98 µM; in the assay on Vero cells (48 h) it was 70 ± 1.27 µM; in the assay with Vero cells (72 h) it was 60.1 ± 1.69 µM; in assay [3] (Homo sapiens, HCT-116, read-out: IC50 Values (Mean ± SD; n = 3), 24 h), 40.1 ± 1.47 µM; in assay [3] (Homo sapiens, HCT-116, read-out: IC50 Values (Mean ± SD; n = 3), 48 h) it was 28.3 ± 0.79 µM; in assay [3] (Homo sapiens, HCT-116, read-out: IC50 Values (Mean ± SD; n = 3), 72 h) it was 26.63 ± 0.15 µM. Further, the IC50 was 51.6 ± 1.92 µM in assay [4] (Homo sapiens, 24 h); 37.2 ± 1.33 µM in assay [4] (Homo sapiens, 48 h); 33.7 ± 0.76 µM in assay [4] (Homo sapiens, 72 h); 104 ± 3.17 µM in assay [5] (Homo sapiens, MCF7, read-out: IC50 Values (Mean ± SD; n = 3), 24 h); 57.8 ± 2.37 µM in assay [5] (Homo sapiens, MCF7, read-out: IC50 Values (Mean ± SD; n = 3), 48 h); 25.5 ± 1.15 µM in assay [5] (Homo sapiens, MCF7, read-out: IC50 Values (Mean ± SD; n = 3), 72 h). For the same compound, the IC50 with H-69 cells (Homo sapiens, NCI-H69, read-out: IC50 Values (Mean ± SD; n = 3), 24 h) amounted to 51.4 ± 1.51 µM; in the assay on H-69 cells (Homo sapiens, NCI-H69, read-out: IC50 Values (Mean ± SD; n = 3), 48 h), 41.4 ± 0.61 µM; with H-69 cells (Homo sapiens, NCI-H69, read-out: IC50 Values (Mean ± SD; n = 3), 72 h) it was 29.4 ± 0.89 µM. The “%HDAC Inhibition” value in assay [6] is 80%.
Turning to `CC(/C=C/C(=O)NO)=C\[C@@H](C)C(=O)c1ccc(N(C)C)cc1` [TSA, Trichostatin A, reference compound], the “%HDAC Inhibition” value in assay [6] stood at 92%.
With “10-(4-Hydroxy-3-methoxyphenyl)-6-((2-hydroxyphenyl)amino)decan-8-one [Compound 6b]”, the “%HDAC Inhibition” value in assay [6] was found to be 64%.
`CCCCCC1CC(CCc2ccc(O)c(OC)c2)=Nc2ccccc2N1` (stereo not drawn) [Compound 7, 2-Methoxy-4-(2-(2-pentyl-2,3-dihydro-1H-benzo[b][1,4]diazepin-4-yl)ethyl)phenol]: in assay [6], the “%HDAC Inhibition” value came to 63%.
Consider `CCCCC/C=C/C(CCc1ccc(O)c(OC)c1)=N\NC1=NCC=N1` [Compound 4e, 4-((3Z,4E)-3-(2-(4H-Imidazol-2-yl)hydrazono)dec-4-en-1-yl)-2-methoxyphenol], for which the “%HDAC Inhibition” value in assay [6] turned out to be 73%.
For the compound `CCCCCC1CC(CCc2ccc(O)c(OC)c2)=NN1c1cccc(Cl)c1` (stereo not drawn) [Compound 5g, 4-(2-(1-(3-chlorophenyl)-5-pentyl-4,5-dihydro-1H-pyrazol-3-yl)ethyl)-2-methoxyphenol], in assay [6], the “%HDAC Inhibition” value was 60%.
In the case of `CCCCCC1CC(CCc2ccc(O)c(OC)c2)=NN1c1ccccc1` (stereo not drawn) [Compound 5a, 2-methoxy-4-(2-(5-pentyl-1-phenyl-4,5-dihydro-1H-pyrazol-3-yl)ethyl)phenol], the “%HDAC Inhibition” value in assay [6] came to 74%.
Take `CCCCCC1CC(CCc2ccc(O)c(OC)c2)=NN1c1ccc(OC)cc1` (stereo not drawn) [Compound 5d, 2-methoxy-4-(2-(1-(4-methoxyphenyl)-5-pentyl-4,5-dihydro-1H-pyrazol-3-yl)ethyl) phenol]: the “%HDAC Inhibition” value in assay [6] worked out at 67%.
On the same count and under the same terms, to `CCCCCC1CC(CCc2ccc(O)c(OC)c2)=NN1c1ccccc1C` (stereo not drawn) [Compound 5b, 2-methoxy-4-(2-(5-pentyl-1-(o-tolyl)-4,5-dihydro-1H-pyrazol-3-yl)ethyl)phenol] belongs 56%; to `CCCCCC1CC(CCc2ccc(O)c(OC)c2)=NN1c1ccccc1OC` (stereo not drawn) [Compound 5c, 2-methoxy-4-(2-(1-(2-methoxyphenyl)-5-pentyl-4,5-dihydro-1H-pyrazol-3-yl)ethyl) phenol], 52%; to `CCCCC/C=C/C(CCc1ccc(O)c(OC)c1)=N\Nc1ccc(C(=O)O)cc1` [Compound 4b, 4-(2-((3Z,4E)-1-(4-Hydroxy-3-methoxyphenyl)dec-4-en-3-ylidene)hydrazinyl)benzo-ic acid], 73%.
In the case of `CCCCCC1CC(CCc2ccc(O)c(OC)c2)=NN1c1ccc(F)cc1` (stereo not drawn) [Compound 5f, 4-(2-(1-(4-fluorophenyl)-5-pentyl-4,5-dihydro-1H-pyrazol-3-yl)ethyl)-2-methoxyphenol], in assay [6], the “%HDAC Inhibition” value was determined as 77%.
Turning to `CCCCCC1CC(CCc2ccc(O)c(OC)c2)=NN1c1ccccc1F` (stereo not drawn) [Compound 5e, 4-(2-(1-(2-fluorophenyl)-5-pentyl-4,5-dihydro-1H-pyrazol-3-yl)ethyl)-2-methoxyphenol], the “%HDAC Inhibition” value in assay [6] is listed as 54%.
Same read-out and setting: with `CCCCC/C=C/C(CCc1ccc(O)c(OC)c1)=N\N` [Compound 4a, 4-((3Z,4E)-3-Hydrazonodec-4-en-1-yl)-2-methoxyphenol] the figure was 73%; with “10-(4-Hydroxy-3-methoxyphenyl)-6-(phenylamino)decan-8-one [Compound 6c]”, 53%; with “10-(4-Hydroxy-3-methoxyphenyl)-6-((2-mercaptophenyl)amino)decan-8-one [Compound 6a]”, 54%.
Consider `CCCCCC1CC(CCc2ccc(O)c(OC)c2)=NN1c1ccc(Cl)cc1` (stereo not drawn) [Compound 5h, 4-(2-(1-(4-chlorophenyl)-5-pentyl-4,5-dihydro-1H-pyrazol-3-yl)ethyl)-2-methoxyphenol], for which, in assay [6], the “%HDAC Inhibition” value is 68%.
For the compound `N.N.[Cl][Pt][Cl]` [Cisplatin, reference compound], the IC50 in assay [1] (setting [7]) is 17.32 ± 0.12 µM; in assay [1] (setting [8]), 11.2 ± 0.14 µM; in assay [1] (setting [9]) it was 7.57 ± 0.07 µM; in assay [2] (24 h) it was more than 20 µM; in assay [2] (48 h), 18.6 ± 0.57 µM; in assay [2] (72 h), 13 ± 0.61 µM. Besides, the half-inhibitory concentration (IC50) in assay [3] (setting [7]) was 21 ± 2.56 µM; in assay [3] (setting [8]), 7.61 ± 0.61 µM; in assay [3] (setting [9]) it was 4.98 ± 0.77 µM; in assay [4] (24 h), 17.1 ± 1 µM; in assay [4] (48 h), 9.97 ± 0.34 µM; in assay [4] (72 h) it was 6.45 ± 0.12 µM. The half-inhibitory concentration (IC50) in assay [5] (setting [7]) is 29.2 ± 1.35 µM; in assay [5] (setting [8]), 13.8 ± 0.54 µM; in assay [5] (setting [9]), 10.4 ± 0.25 µM; in the assay with H-69 cells (setting [7]), more than 20 µM; with H-69 cells (setting [8]) it was more than 20 µM; in the assay on H-69 cells (setting [9]), 15.8 ± 0.35 µM.
Turning to `CCCCCC1CC(CCc2ccc(O)c(OC)c2)=NN1c1cccc([N+](=O)[O-])c1` (stereo not drawn) [Compound 5i, 2-methoxy-4-(2-(1-(3-nitrophenyl)-5-pentyl-4,5-dihydro-1H-pyrazol-3-yl)ethyl)phe nol], in assay [6], the “%HDAC Inhibition” value was 77%.
